# Tests used:
# Assay in all cases: relative viability (nuclei count vs DMSO), 5 days (fraction); higher = more cells survive
# [1] = compound: C1=CC=C(C(=C1)C2=CC=C(C=C2)C3=CSC4=C3C(=C(C(=O)N4)C#N)O)O + O=C(c1cc(Cc2n[nH]c(=O)c3ccccc23)ccc1F)N1CCN(C(=O)C2CC2)CC1 [Olaparib] (partner 8 µM)
# Procedure, shortened: (§1)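 Relative viability is defined as nuclei in treated wells over nuclei in vehicle wells. Duplicate plates were run and medians reported. Lung cancer cell lines in 1536-well plates were dosed by pin tool one day after seeding, with one drug or with a fixed anchor-drug dose plus five library-drug doses (not always all listed) in √10 steps, and nuclei were counted after 5 days.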
# TGX 221 + Phenformin = compound: CC1=CN2C(=O)C=C(N=C2C(=C1)C(C)NC3=CC=CC=C3)N4CCOCC4 [TGX 221] + N=C(N)NC(=N)NCCc1ccccc1 [Phenformin] (partner 250 µM)
# Procedure, shortened: as §1
# TGX 221 + Linsitinib = compound: CC1=CN2C(=O)C=C(N=C2C(=C1)C(C)NC3=CC=CC=C3)N4CCOCC4 [TGX 221] + C[C@]1(O)C[C@@H](c2nc(-c3ccc4ccc(-c5ccccc5)nc4c3)c3c(N)nccn32)C1 [Linsitinib] (partner 1 µM)
# Procedure, shortened: as §1
# [2] = compound: C1=CC=C(C(=C1)C2=CC=C(C=C2)C3=CSC4=C3C(=C(C(=O)N4)C#N)O)O + Cc1cc(Nc2cc(N3CCN(C)CC3)nc(Sc3ccc(NC(=O)C4CC4)cc3)n2)n[nH]1 [Tozasertib] (partner 0.1 µM)
# Procedure, shortened: as §1
Cell Line,relative viability ([1]; first compound 0.08 µM),relative viability ([1]; first compound 0.253 µM),relative viability ([1]; first compound 0.8 µM),relative viability ([1]; first compound 2.53 µM),relative viability ([1]; first compound 8 µM),relative viability (TGX 221 + Phenformin; first compound 0.08 µM),relative viability (TGX 221 + Phenformin; first compound 0.253 µM),relative viability (TGX 221 + Phenformin; first compound 0.8 µM),relative viability (TGX 221 + Phenformin; first compound 2.53 µM),relative viability (TGX 221 + Phenformin; first compound 8 µM),relative viability (TGX 221 + Linsitinib; first compound 0.08 µM),relative viability (TGX 221 + Linsitinib; first compound 0.253 µM),relative viability (TGX 221 + Linsitinib; first compound 0.8 µM),relative viability (TGX 221 + Linsitinib; first compound 2.53 µM),relative viability (TGX 221 + Linsitinib; first compound 8 µM),relative viability ([2]; first compound 0.08 µM),relative viability ([2]; first compound 0.253 µM),relative viability ([2]; first compound 0.8 µM),relative viability ([2]; first compound 2.53 µM),relative viability ([2]; first compound 8 µM)
HARA,0.687,1.55,0.727,1.1,0.762,0.563,0.422,0.426,0.424,0.543,1.05,0.853,0.883,0.766,0.754,0.117,0.106,0.49,0.104,0.101
HCC-15,0.797,0.789,0.705,0.728,0.802,0.482,0.471,0.483,0.451,0.497,0.893,0.86,0.878,0.845,0.827,0.474,0.579,0.371,0.554,0.371
HCC-44,0.979,1.14,1.01,1.01,0.887,0.157,0.212,0.212,0.201,0.177,0.646,0.53,0.62,0.464,0.359,,1.36,0.876,1.03,0.744
HCC-78,0.815,1.4,0.91,0.787,0.711,0.675,0.641,0.533,0.558,0.604,0.464,0.409,,0.213,0.215,0.465,0.41,0.611,0.503,0.375
HCC-366,,0.384,0.369,0.41,0.302,0.617,0.575,0.642,0.572,0.613,0.673,0.434,0.598,0.545,0.291,0.139,0.137,0.14,0.124,0.0974
HCC-827,0.739,0.65,0.59,0.662,0.622,0.386,0.4,0.344,0.359,0.334,0.999,1.05,0.94,0.986,0.886,0.477,0.455,0.402,0.507,0.399
HOP-62,0.592,0.471,0.515,0.844,0.233,0.641,0.639,0.728,0.714,0.777,1.06,1.09,1.02,1.01,0.889,0.363,0.363,0.337,0.335,0.335
IA-LM,0.799,0.967,0.9,0.799,0.771,,,,,,0.685,0.509,0.58,0.621,0.685,,,,,
NCI-H522,0.567,0.674,0.778,0.56,0.645,0.699,0.581,0.597,0.669,0.657,,,,,,0.523,0.435,0.548,0.541,0.541
NCI-H1299,1.01,0.992,0.959,0.942,0.967,,,,,,0.976,1.04,1.04,0.902,0.969,,,,,
NCI-H1563,,,,,,0.708,0.618,0.671,0.654,0.597,1.2,1.2,0.909,0.868,0.755,,,,,
NCI-H1623,,,,,,0.543,0.602,0.62,0.566,0.555,,,,,,0.408,0.53,0.397,0.457,0.436
NCI-H1648,,0.689,0.841,0.31,0.722,,,,,,,,,,,0.503,,0.413,0.6,0.392
NCI-H1650,0.716,1.03,0.742,0.759,0.645,0.419,0.3,0.377,0.382,0.255,,,,,,0.325,0.386,0.417,0.442,0.486
NCI-H1703,0.422,0.417,0.682,0.336,0.362,,,,,,0.678,0.522,0.48,0.487,0.636,,,,,
NCI-H2170,0.624,0.617,0.571,0.687,0.528,0.421,0.413,0.464,0.431,0.362,,,,,,0.71,0.709,0.875,0.721,0.634
NCI-H2342,0.475,0.53,0.432,0.517,0.395,0.445,0.57,0.583,0.559,0.601,,,,,,0.498,0.493,0.543,0.399,0.48
SW 900,,1.13,0.869,0.903,0.839,0.572,0.455,0.473,0.448,0.525,,,,,,0.618,0.491,0.645,0.539,0.491

# Reference: the supplement of paper PMC10307832
